Test results published in patent publication EP3360550A1, “MOLECULES AND PHARMACEUTICAL COMPOSITIONS, IN PARTICULAR FOR TREATING A GENETIC BLOOD DISORDER” (Université de La Réunion, priority 2017, dated 2018).

How the values were obtained:
RBCs = experiment: Control of hemolysis (RBC count with CASY Cell Counter and Analyzer); assay type: cell-based; details: for decrease of RBC concentration compared to vehicle (DMSO) alone: 0.1 mM, 30 min at room temperature; for RBCs/ml (x10^6): RBCs at 6x10^6 cells/ml incubated with molecule at 0.1 mM for 30 min at room temperature
Procedure: At the end of the 30 min of incubation with the molecules, the number of RBC for the control of hemolysis was measure by using CASY® Cell Counter and Analyzer.
For hemolysis assays, RBCs were suspended at 6x10^6 cells/ml in the Hanks/0.4% BSA buffer and the concentration measured accurately using the CASY® Cell Counter and Analyzer. RBCs were then incubated or not with solutions comprising either Molecule 1, Molecule 2 or Molecule 3 at 0.1 mM or DMSO, for 30 min at room temperature. After this incubation time cell concentration was measured again using CASY® Cell Counter and Analyzer (Table 1). If hemolysis occurs during this incubation time it will be reflected by a decrease in the RBC concentration.

laminin 521 = experiment: Red blood cell adhesion to laminin 521 under flow conditions; assay type: cell-based, human; details: for RBC adhesion to laminin: RBCs from sickle cell disease patients incubated with molecule at 0.1 mM for 30 min at room temperature, 3 blood samples, Figure 1; for inhibition of RBC adhesion to laminin (dose effect): increasing concentrations 50, 100 and 200 µM, same conditions as in Example 1, Figure 2
Procedure: Red blood cell adhesion to laminin 521 was measured under flow conditions using Vena8 Endothelial+™ biochips (internal channel dimensions: length 20 mm, width 0.8 mm, height 0.12 mm) and ExiGo™ Nanopumps (Cellix Ltd, Dublin, Ireland). Three different solutions were prepared with either Molecule 1, Molecule 2 or Molecule 3 (0.1 mM) by solubilizing Molecule 1, 2 or 3 using DMSO. Recombinant human laminin 521 (BioLamina) at 5 ng/µl was immobilized on the internal surface of the biochips at 4°C overnight. RBCs from sickle cell disease patients were suspended at 5x10^7 cells/ml in Hanks balanced salt solution, without calcium chloride and magnesium sulfate (Sigma-Aldrich) supplemented with 0.4% BSA, and incubated with the solution comprising either Molecule 1, Molecule 2 or Molecule 3 at 0.1 mM or DMSO for 30 min at room temperature (20°C) and perfused through the biochip channels for 10 min at a shear stress of 0.5 dyn/cm^2 followed by a washout at the same shear stress with the buffer alone for 30 min. Five minutes washouts with the Hanks/0.4% BSA buffer were performed at 1, 2, 3, 4 and 5 dyn/cm^2. After each wash, adherent RBCs were counted in 7 representative areas along the centerline of each channel using the AxioObserver Z1 microscope and ZEN analysis software (Carl Zeiss, Le Pecq, France) and the mean number of adherent RBCs was determined for each condition and each washout step (Figure 1). Images of the same 7 areas were obtained throughout each experiment. Three adhesion assays were performed with 3 different blood samples. RBC adhesion to laminin was inhibited when the RBC suspension was incubated with Molecule 2 or 3, but not Molecule 1.
To address the dose effect of the molecules, adhesion assays were performed in the same conditions as in Example 1, using the following concentrations for Molecule 1, 2 or 3: • 50, 100 and 200 µM.

Compound | decrease of RBC concentration compared to vehicle (DMSO) alone (RBCs) | RBCs/ml (x10^6) (RBCs) | RBC adhesion to laminin (laminin 521) | inhibition of RBC adhesion to laminin (dose effect) (laminin 521)
CCC(=O)N1CCc2ccc(OCc3nc(C(=O)NCc4ccccc4)co3)cc2C1c1ccc(C)cc1 (stereo not drawn) [Molecule 1] | no decrease | 6.04 RBCs/ml (x10^6) |  | 
Cc1c(CC(=O)NC(C(=O)O)c2ccccc2)c(=O)oc2c(C)c3oc4c(c3cc12)CCCC4 (stereo not drawn) [Molecule 2] |  | 5.55 RBCs/ml (x10^6) | inhibited | increasing inhibition
O=S(=O)(O)CCCn1c(=NN=Cc2c(O)ccc3ccccc23)sc2ccccc21 [Molecule 3] | no decrease | 6.02 RBCs/ml (x10^6) | inhibited | increasing inhibition
